Laboratory results from PMC12136037, “Type II kinase inhibitors that target Parkinson’s disease–associated LRRK2” (Science Advances, 2025).
“And” between values parts separate entries of the source, which are not always exact repeats. Equal values may be shown once.

Columns and labels:
[1] = target: T1, LRRK2^RCKW (Homo sapiens, UniProt Q5S007); experiment: Biochemical LRRK2 activity assay (PhosphoSense, AssayQuant SOX peptide AQT0615); conditions: for IC50: LRRK2^RCKW kinase activity, in vitro; for normalized response (LRRK2 activity): normalized to 0% (no kinase) and 100% (no inhibitor) control, two singlicate columns per compound
T1 construct: LRRK2 R1327 to E2527; His6-Z-tag (TEV cleavable) (N, cleaved yes); host or cells: Sf9 insect cells (baculovirus)
T1 sequence (Q5S007 1327-2527): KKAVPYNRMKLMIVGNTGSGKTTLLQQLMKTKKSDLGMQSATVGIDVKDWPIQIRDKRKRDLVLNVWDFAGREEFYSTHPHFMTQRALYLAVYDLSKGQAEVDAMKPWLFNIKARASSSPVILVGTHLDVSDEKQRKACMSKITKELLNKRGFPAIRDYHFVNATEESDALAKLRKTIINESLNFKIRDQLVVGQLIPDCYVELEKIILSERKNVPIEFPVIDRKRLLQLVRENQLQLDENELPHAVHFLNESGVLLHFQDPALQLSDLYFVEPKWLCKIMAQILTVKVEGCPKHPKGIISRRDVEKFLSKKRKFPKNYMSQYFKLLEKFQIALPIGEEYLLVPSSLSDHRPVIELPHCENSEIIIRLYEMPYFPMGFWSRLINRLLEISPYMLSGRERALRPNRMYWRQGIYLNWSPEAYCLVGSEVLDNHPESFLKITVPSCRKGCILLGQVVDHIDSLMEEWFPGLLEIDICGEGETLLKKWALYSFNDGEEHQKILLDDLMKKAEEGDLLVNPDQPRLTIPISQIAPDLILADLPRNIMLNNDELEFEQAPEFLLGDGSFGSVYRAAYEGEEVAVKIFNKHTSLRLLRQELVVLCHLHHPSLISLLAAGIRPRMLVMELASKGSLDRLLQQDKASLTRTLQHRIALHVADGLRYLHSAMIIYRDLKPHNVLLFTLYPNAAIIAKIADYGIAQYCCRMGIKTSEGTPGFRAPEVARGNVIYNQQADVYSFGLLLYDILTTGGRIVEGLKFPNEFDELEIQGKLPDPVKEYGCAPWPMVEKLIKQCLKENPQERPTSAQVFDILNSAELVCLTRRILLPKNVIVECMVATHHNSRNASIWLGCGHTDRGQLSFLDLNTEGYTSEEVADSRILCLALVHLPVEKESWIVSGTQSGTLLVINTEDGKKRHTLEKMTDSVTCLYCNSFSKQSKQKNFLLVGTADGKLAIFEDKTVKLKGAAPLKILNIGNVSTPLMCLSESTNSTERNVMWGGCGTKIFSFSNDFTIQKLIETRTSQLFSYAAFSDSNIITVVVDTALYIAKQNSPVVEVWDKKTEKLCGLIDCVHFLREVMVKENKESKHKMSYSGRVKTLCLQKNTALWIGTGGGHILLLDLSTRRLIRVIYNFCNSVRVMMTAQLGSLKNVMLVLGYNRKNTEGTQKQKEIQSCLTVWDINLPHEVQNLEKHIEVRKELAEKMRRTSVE
Outline: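 Controls lacked protein and compound (0%) or compound only (100%). IC50 derived by nonlinear regression of normalized response versus log[inhibitor].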

[2] = target: T2, ~100 representative kinases (Homo sapiens, UniProt O96013); experiment: DSF 100 kinase selectivity screen; type: binding; conditions: protein PAK4; average of three replicates;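 further: compound tested at 20 µM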
T2 construct: Recombinant protein kinase domains with a concentration of 2 μM
Outline: (§1)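 Each kinase domain, at 2 μM, is mixed with 20 μM test compound and SYPRO Orange in Hepes (20 mM, pH 7.5) with 500 mM NaCl. Temperature is then raised at 3°C/min and fluorescence-monitored unfolding yields the melting temperature change, ΔTm in degrees Celsius.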

[3] = target: T3, ~100 representative kinases (Homo sapiens, UniProt P12931); experiment: DSF 100 kinase selectivity screen; type: binding; conditions: Protein SRC; DSF; average of three replicates;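 further: compound tested at 20 µM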
T3 construct: Recombinant protein kinase domains with a concentration of 2 μM
Outline: as §1

[4] = target: T4, ~100 representative kinases (Homo sapiens, UniProt P27448); experiment: DSF 100 kinase selectivity screen; type: binding; conditions: protein MARK3; average of three replicates;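 further: compound tested at 20 µM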
T4 construct: Recombinant protein kinase domains with a concentration of 2 μM
Outline: as §1

[5] = target: T5, ~100 representative kinases (Homo sapiens, UniProt Q2M2I8); experiment: DSF 100 kinase selectivity screen; type: binding; conditions: Protein AAK1; average of three replicates;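 further: compound tested at 20 µM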
T5 construct: Recombinant protein kinase domains with a concentration of 2 μM
Outline: as §1

[6] = target: T6, ~100 representative kinases (Homo sapiens, UniProt Q5VT25); experiment: DSF 100 kinase selectivity screen; type: binding; conditions: Protein CDC42BPA; average of three replicates;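 further: compound tested at 20 µM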
T6 construct: Recombinant protein kinase domains with a concentration of 2 μM
Outline: as §1

[7] = target: T7, ~100 representative kinases (Homo sapiens, UniProt Q9H4A3); experiment: DSF 100 kinase selectivity screen; type: binding; conditions: Protein WNK1; DSF; average of three replicates;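 further: compound tested at 20 µM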
T7 construct: Recombinant protein kinase domains with a concentration of 2 μM
Outline: as §1

T7 sequence (Q9H4A3 whole entry, the tested form may be a part): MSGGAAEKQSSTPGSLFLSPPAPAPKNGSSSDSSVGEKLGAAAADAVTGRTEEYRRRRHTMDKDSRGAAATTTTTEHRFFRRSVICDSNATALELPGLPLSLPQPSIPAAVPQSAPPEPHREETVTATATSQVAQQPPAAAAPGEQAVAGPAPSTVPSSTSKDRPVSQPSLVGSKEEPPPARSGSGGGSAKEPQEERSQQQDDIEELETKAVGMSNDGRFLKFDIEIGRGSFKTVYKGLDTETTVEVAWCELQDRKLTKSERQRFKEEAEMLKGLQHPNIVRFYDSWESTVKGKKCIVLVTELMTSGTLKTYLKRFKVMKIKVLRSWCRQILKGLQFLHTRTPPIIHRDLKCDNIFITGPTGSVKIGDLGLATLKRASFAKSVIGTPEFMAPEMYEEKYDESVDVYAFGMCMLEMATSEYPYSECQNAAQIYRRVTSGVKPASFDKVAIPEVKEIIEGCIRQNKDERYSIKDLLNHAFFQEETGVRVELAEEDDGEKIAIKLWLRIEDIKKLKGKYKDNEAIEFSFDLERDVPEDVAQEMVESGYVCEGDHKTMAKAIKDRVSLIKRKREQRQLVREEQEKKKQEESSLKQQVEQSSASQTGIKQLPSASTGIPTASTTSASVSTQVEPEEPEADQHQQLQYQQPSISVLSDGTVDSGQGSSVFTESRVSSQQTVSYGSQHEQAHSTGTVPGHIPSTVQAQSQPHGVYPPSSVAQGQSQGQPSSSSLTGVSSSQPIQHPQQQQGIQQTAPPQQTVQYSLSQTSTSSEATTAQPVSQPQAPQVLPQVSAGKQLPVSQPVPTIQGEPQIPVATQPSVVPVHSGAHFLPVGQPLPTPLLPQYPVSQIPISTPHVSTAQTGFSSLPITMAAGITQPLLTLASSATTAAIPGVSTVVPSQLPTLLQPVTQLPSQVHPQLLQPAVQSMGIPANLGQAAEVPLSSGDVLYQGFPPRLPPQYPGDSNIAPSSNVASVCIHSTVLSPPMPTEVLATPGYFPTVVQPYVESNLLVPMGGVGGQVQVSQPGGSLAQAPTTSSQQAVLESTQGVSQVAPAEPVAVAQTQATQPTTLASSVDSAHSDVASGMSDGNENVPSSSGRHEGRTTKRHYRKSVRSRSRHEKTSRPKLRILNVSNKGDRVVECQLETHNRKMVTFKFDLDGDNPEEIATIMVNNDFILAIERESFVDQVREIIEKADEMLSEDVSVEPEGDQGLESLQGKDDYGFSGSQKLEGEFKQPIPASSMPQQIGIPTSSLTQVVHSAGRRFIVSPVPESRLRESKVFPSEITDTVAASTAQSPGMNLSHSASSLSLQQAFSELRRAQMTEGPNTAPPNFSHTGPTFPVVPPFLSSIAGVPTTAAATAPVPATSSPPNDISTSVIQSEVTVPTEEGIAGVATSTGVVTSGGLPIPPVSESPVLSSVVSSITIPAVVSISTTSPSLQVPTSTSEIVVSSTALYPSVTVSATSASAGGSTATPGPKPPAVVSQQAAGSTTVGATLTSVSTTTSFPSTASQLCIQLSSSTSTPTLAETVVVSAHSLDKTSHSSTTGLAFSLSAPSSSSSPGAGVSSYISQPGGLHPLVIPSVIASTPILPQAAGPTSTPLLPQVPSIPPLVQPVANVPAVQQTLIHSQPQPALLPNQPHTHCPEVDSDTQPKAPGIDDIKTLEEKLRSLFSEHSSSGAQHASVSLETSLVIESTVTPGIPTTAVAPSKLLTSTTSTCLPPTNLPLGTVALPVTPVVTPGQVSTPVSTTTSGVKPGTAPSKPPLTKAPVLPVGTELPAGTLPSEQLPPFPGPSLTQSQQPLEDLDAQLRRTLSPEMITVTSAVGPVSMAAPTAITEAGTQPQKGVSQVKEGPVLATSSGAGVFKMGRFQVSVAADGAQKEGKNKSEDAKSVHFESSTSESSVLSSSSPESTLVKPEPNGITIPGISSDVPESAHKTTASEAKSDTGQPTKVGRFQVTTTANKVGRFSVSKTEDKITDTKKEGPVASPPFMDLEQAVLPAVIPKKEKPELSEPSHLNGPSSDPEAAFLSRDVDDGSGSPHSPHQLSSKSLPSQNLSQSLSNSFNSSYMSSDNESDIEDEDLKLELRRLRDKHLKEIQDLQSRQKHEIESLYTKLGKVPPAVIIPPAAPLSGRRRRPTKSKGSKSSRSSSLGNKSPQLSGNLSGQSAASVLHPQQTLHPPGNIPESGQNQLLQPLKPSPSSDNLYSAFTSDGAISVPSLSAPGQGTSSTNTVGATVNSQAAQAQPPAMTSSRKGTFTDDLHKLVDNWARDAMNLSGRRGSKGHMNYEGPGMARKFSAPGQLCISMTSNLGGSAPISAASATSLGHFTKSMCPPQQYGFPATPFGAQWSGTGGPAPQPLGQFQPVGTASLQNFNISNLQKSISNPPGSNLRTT
T5 sequence (Q2M2I8 whole entry, the tested form may be a part): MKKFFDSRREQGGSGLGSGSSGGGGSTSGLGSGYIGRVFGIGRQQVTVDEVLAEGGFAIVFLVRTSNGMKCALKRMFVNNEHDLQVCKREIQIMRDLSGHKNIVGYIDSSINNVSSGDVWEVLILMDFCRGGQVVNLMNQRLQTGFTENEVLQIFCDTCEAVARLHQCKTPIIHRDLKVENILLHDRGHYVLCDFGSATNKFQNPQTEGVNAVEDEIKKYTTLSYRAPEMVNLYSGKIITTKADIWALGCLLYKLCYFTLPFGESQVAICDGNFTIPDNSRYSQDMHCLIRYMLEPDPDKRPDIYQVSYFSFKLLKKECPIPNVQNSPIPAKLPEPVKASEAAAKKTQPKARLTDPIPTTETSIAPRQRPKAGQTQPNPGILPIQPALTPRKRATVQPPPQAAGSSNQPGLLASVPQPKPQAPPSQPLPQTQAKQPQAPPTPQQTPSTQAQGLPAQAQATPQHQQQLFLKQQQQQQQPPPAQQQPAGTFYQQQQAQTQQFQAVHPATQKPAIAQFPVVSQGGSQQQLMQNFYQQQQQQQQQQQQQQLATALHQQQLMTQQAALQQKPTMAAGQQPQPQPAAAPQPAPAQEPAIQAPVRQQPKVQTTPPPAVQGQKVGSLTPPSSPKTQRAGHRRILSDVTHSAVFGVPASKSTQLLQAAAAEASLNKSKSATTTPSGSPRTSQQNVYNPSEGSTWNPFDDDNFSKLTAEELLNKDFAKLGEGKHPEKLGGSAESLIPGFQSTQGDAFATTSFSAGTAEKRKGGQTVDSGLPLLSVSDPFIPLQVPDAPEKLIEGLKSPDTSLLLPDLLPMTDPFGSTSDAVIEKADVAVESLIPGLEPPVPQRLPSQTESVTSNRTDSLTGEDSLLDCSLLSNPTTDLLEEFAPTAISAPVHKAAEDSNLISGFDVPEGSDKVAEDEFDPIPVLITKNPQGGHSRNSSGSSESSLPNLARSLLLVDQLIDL
T3 sequence (P12931 whole entry, the tested form may be a part): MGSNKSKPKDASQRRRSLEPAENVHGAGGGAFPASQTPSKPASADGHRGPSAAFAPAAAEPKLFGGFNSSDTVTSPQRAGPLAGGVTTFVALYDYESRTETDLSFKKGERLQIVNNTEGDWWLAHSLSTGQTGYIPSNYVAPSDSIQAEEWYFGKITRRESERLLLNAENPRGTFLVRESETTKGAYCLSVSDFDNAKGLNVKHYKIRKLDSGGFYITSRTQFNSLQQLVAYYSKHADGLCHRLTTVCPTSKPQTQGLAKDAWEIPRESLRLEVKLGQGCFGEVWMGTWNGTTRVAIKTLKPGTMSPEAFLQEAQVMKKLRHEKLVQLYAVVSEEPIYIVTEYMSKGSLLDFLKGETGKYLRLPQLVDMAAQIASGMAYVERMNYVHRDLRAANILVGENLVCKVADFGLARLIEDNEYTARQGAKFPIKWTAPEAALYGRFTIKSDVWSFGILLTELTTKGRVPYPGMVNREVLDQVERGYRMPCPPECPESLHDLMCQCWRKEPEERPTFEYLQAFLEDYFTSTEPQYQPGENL
T2 sequence (O96013 whole entry, the tested form may be a part): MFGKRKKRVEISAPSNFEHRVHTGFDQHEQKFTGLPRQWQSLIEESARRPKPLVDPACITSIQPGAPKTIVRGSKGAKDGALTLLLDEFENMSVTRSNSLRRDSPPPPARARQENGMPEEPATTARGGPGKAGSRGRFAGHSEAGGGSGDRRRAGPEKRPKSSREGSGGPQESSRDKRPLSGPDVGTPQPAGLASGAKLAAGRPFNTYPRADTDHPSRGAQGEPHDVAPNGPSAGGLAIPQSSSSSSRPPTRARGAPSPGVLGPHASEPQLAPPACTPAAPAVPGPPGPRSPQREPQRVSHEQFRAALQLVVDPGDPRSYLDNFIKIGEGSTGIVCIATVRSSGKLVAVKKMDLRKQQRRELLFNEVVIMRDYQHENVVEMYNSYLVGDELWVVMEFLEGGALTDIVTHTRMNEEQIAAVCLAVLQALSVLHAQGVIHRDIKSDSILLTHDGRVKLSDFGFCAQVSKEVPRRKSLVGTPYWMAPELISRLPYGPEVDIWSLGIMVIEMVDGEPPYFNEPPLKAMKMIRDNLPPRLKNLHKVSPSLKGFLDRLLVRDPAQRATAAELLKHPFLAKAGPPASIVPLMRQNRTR

Row | IC50 [1] [nM] | normalized response (LRRK2 activity) ([1]; log[inhibitor(mol)] -4.82391) | normalized response (LRRK2 activity) ([1]; log[inhibitor(mol)] -5.12494) | normalized response (LRRK2 activity) ([1]; log[inhibitor(mol)] -5.60206) | normalized response (LRRK2 activity) ([1]; log[inhibitor(mol)] -6.30103) | normalized response (LRRK2 activity) ([1]; log[inhibitor(mol)] -6.90309) | normalized response (LRRK2 activity) ([1]; log[inhibitor(mol)] -7.30103) | normalized response (LRRK2 activity) ([1]; log[inhibitor(mol)] -7.60206) | normalized response (LRRK2 activity) ([1]; log[inhibitor(mol)] -8.09691) | normalized response (LRRK2 activity) ([1]; log[inhibitor(mol)] -8.61979) | normalized response (LRRK2 activity) ([1]; log[inhibitor(mol)] -9.09691) | normalized response (LRRK2 activity) ([1]; log[inhibitor(mol)] -9.39794) | dTm [2] [K] | dTm [3] [K] | dTm [4] [K] | dTm [5] [K] | dTm [6] [K] | dTm [7] [K] | Compound
1 | 989 ± 32 | 10.5992% and 8.534% | 11.3407% and 2.1893% | 26.743% and 30.013% | 46.8199% and 60.7415% | 90.6286% and 91.37% | 100.861% and 98.8124% | 104.989% and 102.561% | 99.7669% and 103.043% | 100.861% and 99.0776% | 103.172% and 100.678% | 101.258% and 104.313% | 0.55 | 2.66 | 3.89 | -0.63 | -1.26 | 0.35 | O=C(Nc1cccc(-c2c[nH]c3ncnc(N4CCOCC4)c23)c1)C1(C(=O)Nc2cccc3c2CCC3)CC1 [Compound 11]
2 | 350 ± 25 | 0.1647% and -9.791% | -4.574% and -1.793% | 1.386% and 6.849% | 35.45% and 38.9177% | 76.566% and 79.9356% | 91.6032% and 94.9482% | 99.2139% and 97.704% | 99.3121% and 101.951% | 104.222% and 110.035% | 103.486% and 106.278% | 106.585% and 109.47% | -0.15 | 1.12 | 4.89 | 3.79 | -0.16 | -0.065 | O=C(Nc1ccccc1)C1(C(=O)Nc2cccc(-c3c[nH]c4ncnc(N5CCOCC5)c34)c2)CC1 [Compound 12]
3 | 717 ± 14 | – | – | 15.0853% and 13.379% | 62.4187% and 38.0646% | 95.7707% and 92.6957% | 101.552% and 99.1095% | 102.657% and 105.64% | 106.745% and 99.576% | 101.35% and 101.951% | 104.075% and 108.101% | 110.679% and 104.597% | 1.17 | 1.70 | 7.72 | 3.55 | -0.08 | 0.30 | O=C(Nc1ccc(Cl)cc1)C1(C(=O)Nc2cccc(-c3c[nH]c4ncnc(N5CCOCC5)c34)c2)CC1 [Compound 13]
4 | 156 ± 33 | – | -6.986% and -9.956% | 21.8981% and 20.2655% | 13.87% and 15.03% | 58.2022% and 57.0299% | 81.6541% and 110.82% | 85.6497% and 54.8081% | 91.8548% and 92.1679% | 98.0477% and 97.5874% | 93.5857% and 99.2323% | 96.7834% and 110.495% | -0.55 | 1.11 | 4.90 | 2.28 | -1.21 | 0.16 | Cc1ccc(NC(=O)C2(C(=O)Nc3cccc(-c4c[nH]c5ncnc(N6CCOCC6)c45)c3)CC2)cc1 [Compound 14]
